Tests used:
[1] = system: peripheral blood mononuclear cells (PBMC); test: Stimulation of IFN-α secretion from PBMC; assay type: cell-based, human; conditions: 24 hours, lowest concentration giving cytokine level at least 3 times the minimum detection limit
Protocol: The ability of the compound of the present disclosure to stimulate the secretion of IFN-α from PBMC was determined by the following experimental method:
The compound was diluted with pure DMSO to a maximum concentration of 5 mM, and a total of 9 points were obtained by a 4-fold gradient dilution. 4 μL of the compound was then added to 196 μL of RMPI 1640 medium containing 10% FBS and mixed well. 50 μL of the mixture was taken from each well and added to a new 96-well cell culture plate.
All reagents were equilibrated to room temperature. 60 mL of blood and PBS+2% FBS were added to a 250 mL culture flask, gently pipetted, mixed well and diluted. 15 mL of lymphocyte separation solution Ficoll-Paque PREMIUM and then 30 mL of diluted blood were added to a 50 mL PBMC centrifuge tube SepMate™-50. The mixture was centrifuged at 1200 g for 10 minutes at room temperature. The supernatant was taken and then centrifuged at 300 g for 8 minutes. The cells were re-suspended in the RMPI 1640 medium containing 10% FBS and counted, and the number of PBMCs was adjusted to 3.33×10^6 cells/mL. 150 μL of the cell solution was added to the plate added with the compound, and incubated in an incubator at 37° C., 5.0% CO2 for 24 hours.
The cell culture plate was placed in a centrifuge, and centrifuged at 1200 rpm for 10 minutes at room temperature. […]
The plate was read with PHERAStar in the HTRF mode. […]

CYP2D6 = molecular target: T1, CYP2D6 (Homo sapiens, UniProt P10635); test: Inhibition of CYP2D6 in human liver microsome; assay type: in vitro ADME
T1 construct: CYP2D6 in human liver microsome; tissue Corning Gentest; host or cells: human liver microsomes
Protocol: The effect of the compound represented by formula (I) on the enzyme activity of CYP2D6 in human liver microsome was determined by the following experimental method:
(§1) 100 mM PBS buffer was formulated, which was then used to formulate 2.5 mg/mL microsome solution and 5 mM NADPH solution. The 5× concentration of the compound working solution was diluted with PBS gradient (150, 50, 15, 5, 1.5, 0.15, 0.015, 0 μM). The 5× concentration of quinidine working solution was diluted with PBS gradient (150, 50, 15, 5, 1.5, 0.15, 0.015, 0 μM). Dextromethorphan working solution was diluted with PBS to a concentration of 50 μM.
(§2) 20 μL of the 2.5 mg/mL microsome solution, 20 μL of the 50 μM […] working solution, 20 μL of MgCl2 solution and 20 μL of the compound working solution (150, 50, 15, 5, 1.5, 0.15, 0.015, 0 μM, different reaction systems for each concentration) were taken respectively and mixed well. For the positive control group, the compound was replaced with the same concentration of quinidine. The mixture together with the 5 mM NADPH solution was pre-incubated at 37° C. for 5 minutes. After 5 minutes, 20 μL of NADPH was added to each well, the reaction was started and incubated for 30 minutes. […] 80 μL of the supernatant was taken and analyzed by LC-MS/MS.
The data were calculated by Graphpad Prism to obtain the IC50 value of the compound on the metabolite site of CYP2D6.

CYP3A4 = molecular target: T2, CYP3A4 (Homo sapiens, UniProt P08684); test: Inhibition of testosterone metabolite site of CYP3A4 in human liver microsome; assay type: in vitro ADME
T2 construct: CYP3A4 in human liver microsome; tissue Corning Gentest; host or cells: human liver microsomes
Protocol: The effect of the compound represented by formula (I) on the enzyme activity of testosterone metabolite site of CYP3A4 in human liver microsome was determined by the following experimental method:
as §1, with “ketoconazole” for “quinidine”
as §2, with “ketoconazole.” for “quinidine.”, “minutes.” for “minutes. After 5 minutes, 20 μL of NADPH was added to each well, the reaction was started and incubated for 30 minutes.”
The data was calculated by Graphpad Prism to obtain the IC50 value of the compound on the testosterone metabolite site of CYP3A4.

Log D = assay type: physicochemical

T1 sequence (P10635 whole entry): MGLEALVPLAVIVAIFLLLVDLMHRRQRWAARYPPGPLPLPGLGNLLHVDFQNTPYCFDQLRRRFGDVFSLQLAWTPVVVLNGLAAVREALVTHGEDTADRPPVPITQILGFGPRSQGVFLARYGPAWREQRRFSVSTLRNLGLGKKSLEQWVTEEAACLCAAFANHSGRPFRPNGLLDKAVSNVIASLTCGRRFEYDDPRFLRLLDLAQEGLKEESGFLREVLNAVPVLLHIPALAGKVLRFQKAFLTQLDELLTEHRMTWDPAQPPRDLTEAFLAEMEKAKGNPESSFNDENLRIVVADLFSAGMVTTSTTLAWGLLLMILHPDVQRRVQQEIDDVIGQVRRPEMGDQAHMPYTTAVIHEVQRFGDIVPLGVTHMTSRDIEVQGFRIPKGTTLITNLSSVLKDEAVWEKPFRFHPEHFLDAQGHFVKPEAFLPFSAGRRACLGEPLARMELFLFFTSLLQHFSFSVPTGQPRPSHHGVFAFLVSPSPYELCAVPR
T2 sequence (P08684 whole entry): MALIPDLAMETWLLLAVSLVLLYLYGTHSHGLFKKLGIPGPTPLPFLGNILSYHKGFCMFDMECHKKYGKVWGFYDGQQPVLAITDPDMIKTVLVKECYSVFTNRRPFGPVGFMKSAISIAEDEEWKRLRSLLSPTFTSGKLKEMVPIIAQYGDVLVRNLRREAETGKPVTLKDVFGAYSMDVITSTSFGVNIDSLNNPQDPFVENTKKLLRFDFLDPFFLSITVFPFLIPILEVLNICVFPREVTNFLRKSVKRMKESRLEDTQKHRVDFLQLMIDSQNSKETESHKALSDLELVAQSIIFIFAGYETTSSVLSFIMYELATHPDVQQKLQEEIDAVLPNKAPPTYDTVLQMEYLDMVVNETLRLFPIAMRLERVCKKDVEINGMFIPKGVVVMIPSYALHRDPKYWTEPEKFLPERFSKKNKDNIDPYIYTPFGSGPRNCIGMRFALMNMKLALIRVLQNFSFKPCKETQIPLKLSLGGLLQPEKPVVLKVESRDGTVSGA

In the case of `CCCCOc1nc(N)c2cnn(Cc3ccc(CN4CCCC4)cc3)c2n1` [compound represented by formula (I), 6-Butoxy-1-(4-(pyrrolidin-1-ylmethyl)benzyl)-1H-pyrazolo[3,4-d]pyrimidin-4-amine], the “MEC (minimal effective concentration), IFN-α secretion from PBMC” value [1] is reported as 6 nM, the “inhibitory effect against CYP2D6 (in words)” value (CYP2D6) is reported as “no inhibitory effect” and the IC50 (CYP2D6; dextromethorphan probe) is reported as > 30 µM. For the same compound, the “inhibitory effect on testosterone metabolite site of CYP3A4 (in words)” value (CYP3A4) was “weak inhibitory effect”, the IC50 (CYP3A4; testosterone probe) was 4 µM and the “Log D” value (Log D) was 1.21.

Source: patent US20210188856A1, “CRYSTAL FORM OF HYDROCHLORIDE OF PYRAZOLOHETEROARYL DERIVATIVE AND PREPARATION METHOD” (JIANGSU HENGRUI MEDICINE CO., LTD., priority 2018, published 2021)
